Experimental data published in PubChem BioAssay AID1963958 (Molecular Pharmacology Branch, DTP, NCI, 2024).

Tested on: MDA-MB-231 multicell spheroids, viability
Experiment: Anticancer human tumor MDA-MB-231 cell line growth inhibition [PI3K];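 further: spheroids exposed to agents for seven days before reading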;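 on viability, T/C: percent of vehicle control luminescence with DMSO treated spheroids as 100%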
Settings: for IC50: curve of first compound; for viability, T/C: stronger effect = lower value; active means viability on the fitted dose curve at most 10% of control; inactive means the rest
Outline: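 Complex 3D spheroids (cancer cells + endothelial HUVEC + mesenchymal stem cells); drug pairs of targeted agent x inavolisib/alpelisib/duvelisib/copanlisib; half-log series from ~Cmax, max 10 microM if Cmax unknown; endpoint viability.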

[1] = second compound 0.0316 µM, first compound 0.0316 µM
[2] = second compound 0.0316 µM, first compound 0.1 µM
[3] = second compound 0.0316 µM, first compound 0.316 µM
[4] = second compound 0.0316 µM, first compound 1 µM
[5] = second compound 0.1 µM, first compound 0.0316 µM
[6] = second compound 0.1 µM, first compound 0.1 µM
[7] = second compound 0.1 µM, first compound 0.316 µM
[8] = second compound 0.1 µM, first compound 1 µM
[9] = second compound 0.316 µM, first compound 0.0316 µM
[10] = second compound 0.316 µM, first compound 0.1 µM
[11] = second compound 0.316 µM, first compound 0.316 µM
[12] = second compound 0.316 µM, first compound 1 µM
[13] = second compound 1 µM, first compound 0.0316 µM
[14] = second compound 1 µM, first compound 0.1 µM
[15] = second compound 1 µM, first compound 0.316 µM
[16] = second compound 1 µM, first compound 1 µM
[17] = second compound 3.16 µM, first compound 0.0316 µM
[18] = second compound 3.16 µM, first compound 0.1 µM
[19] = second compound 3.16 µM, first compound 0.316 µM
[20] = second compound 3.16 µM, first compound 1 µM
[21] = second compound 10 µM, first compound 0.0316 µM
[22] = second compound 10 µM, first compound 0.1 µM
[23] = second compound 10 µM, first compound 0.316 µM
[24] = second compound 10 µM, first compound 1 µM

CC(C)NCC(C(=O)N1CCN(c2ncnc3c2C(C)CC3O)CC1)c1ccc(Cl)cc1 (centres undefined) + CC(Nc1ncnc2nc[nH]c12)c1cc2cccc(Cl)c2c(=O)n1-c1ccccc1
8610 nM: IC50 (second compound 0.0316 µM)
8770 nM: IC50 (second compound 0.1 µM)
96.5 nM: IC50 (second compound 10 µM)
inactive: viability, T/C [1] 103% | viability, T/C [2] 98% | viability, T/C [3] 97.1% | viability, T/C [4] 91% | viability, T/C (second compound 0.0316 µM, first compound 3.16 µM) 64.3% | viability, T/C (second compound 0.0316 µM, first compound 10 µM) 47.9% | viability, T/C [5] 106% | viability, T/C [6] 88.5% | viability, T/C [7] 91.8% | viability, T/C [8] 82.2% | viability, T/C (second compound 0.1 µM, first compound 3.16 µM) 66.3% | viability, T/C (second compound 0.1 µM, first compound 10 µM) 46.8% | viability, T/C [9] 86% | viability, T/C [10] 102% | viability, T/C [11] 86.8% | viability, T/C [12] 77.9% | viability, T/C (second compound 0.316 µM, first compound 3.16 µM) 62.1% | viability, T/C (second compound 0.316 µM, first compound 10 µM) 43% | viability, T/C [13] 92.1% | viability, T/C [14] 82.3% | viability, T/C [15] 76.5% | viability, T/C [16] 65.9% | viability, T/C (second compound 1 µM, first compound 3.16 µM) 55.2% | viability, T/C (second compound 1 µM, first compound 10 µM) 44.3% | viability, T/C [17] 63.5% | viability, T/C [18] 62.1% | viability, T/C [19] 63% | viability, T/C [20] 51.6% | viability, T/C (second compound 3.16 µM, first compound 3.16 µM) 45.3% | viability, T/C (second compound 3.16 µM, first compound 10 µM) 39.1% | viability, T/C [21] 52.5% | viability, T/C [22] 48.6% | viability, T/C [23] 49.3% | viability, T/C [24] 40.7% | viability, T/C (second compound 10 µM, first compound 3.16 µM) 37.9% | viability, T/C (second compound 10 µM, first compound 10 µM) 31.8%
5570 nM: IC50 (second compound 1 µM)
1870 nM: IC50 (second compound 3.16 µM)
6480 nM: IC50 (second compound 0.316 µM)

CCN1CCN(Cc2ccc(Nc3ncc(F)c(-c4cc(F)c5nc(C)n(C(C)C)c5c4)n3)nc2)CC1 + CC(Nc1ncnc2nc[nH]c12)c1cc2cccc(Cl)c2c(=O)n1-c1ccccc1
85.4 nM: IC50 (second compound 1 µM)
20.1 nM: IC50 (second compound 3.16 µM)
988 nM: IC50 (second compound 0.316 µM)
< 3.16 nM: IC50 (second compound 10 µM)
inactive: viability, T/C (second compound 0.0316 µM, first compound 0.00316 µM) 96.7% | viability, T/C (second compound 0.0316 µM, first compound 0.01 µM) 93.2% | viability, T/C [1] 81.4% | viability, T/C [2] 58.9% | viability, T/C [3] 57.1% | viability, T/C [4] 56.8% | viability, T/C (second compound 0.1 µM, first compound 0.00316 µM) 98.2% | viability, T/C (second compound 0.1 µM, first compound 0.01 µM) 84.4% | viability, T/C [5] 79% | viability, T/C [6] 59.1% | viability, T/C [7] 55% | viability, T/C [8] 51.9% | viability, T/C (second compound 0.316 µM, first compound 0.00316 µM) 92.9% | viability, T/C (second compound 0.316 µM, first compound 0.01 µM) 80.7% | viability, T/C [9] 71.2% | viability, T/C [10] 56.8% | viability, T/C [11] 47.4% | viability, T/C [12] 53.5% | viability, T/C (second compound 1 µM, first compound 0.00316 µM) 78.4% | viability, T/C (second compound 1 µM, first compound 0.01 µM) 70.8% | viability, T/C [13] 53.6% | viability, T/C [14] 47.8% | viability, T/C [15] 50.3% | viability, T/C [16] 49.6% | viability, T/C (second compound 3.16 µM, first compound 0.00316 µM) 62.1% | viability, T/C (second compound 3.16 µM, first compound 0.01 µM) 54.5% | viability, T/C [17] 49% | viability, T/C [18] 36.8% | viability, T/C [19] 40.5% | viability, T/C [20] 46.7% | viability, T/C (second compound 10 µM, first compound 0.00316 µM) 46.5% | viability, T/C (second compound 10 µM, first compound 0.01 µM) 40.7% | viability, T/C [21] 37.2% | viability, T/C [22] 29.3% | viability, T/C [23] 41.1% | viability, T/C [24] 49.6%
> 1000 nM: IC50 (second compound 0.0316 µM) | IC50 (second compound 0.1 µM)
